# Measurements: US10562912B2 (C&C Research Laboratories, priority 2013, dated 2020)
# Experiments:
# Assay type in all cases: cell-based
# DU-145 = assay: Cell growth inhibition assay, prostate cancer cell line DU-145; conditions: Homo sapiens, DU-145 prostate cancer cell line
# Description: (§1) The inhibitory effects of the compounds of the present invention against the growth of cancer cells were evaluated as shown below. The cancer cell lines including stomach cancer cell line (AGS), breast cancer cell lines (MDA-MB-231, MDA-MB-468, and BT-549), prostate cancer cell lines (LNCaP and DU-145), colon cancer cell line (HCT116), ovarian cancer cell line (SW626), liver cancer cell line (Hep3B), kidney cancer cell line (ACHN), lung cancer cell line (NCI-H23) and blood cancer cell lines (HEL92.1.7 and U266) were cultured under the protocol provided by each supplier. A medium supplemented with 10 ng/mL of IL-6 was used for LNCaP, a prostate cancer cell line, when treated with a drug. Each type of cells to be used in experiments were sub-cultured in a 96-well plate by counting the exact number of cells using Tali™ Image-based Cytometer (Life Technologies). In a 96-well plate, AGS, HCT116, and DU-145 were employed with 3,000 cells/well; NCI-H23, SW626, Hep3B, ACHN, BT-549, MDA-MB-231, HEL92.1.7, and U266 were employed with 5,000 cells/well; and LNCaP and MDA-MB-468 were employed with 10,000 cells/well. The cells were treated with the compounds listed in Examples which were diluted in various concentrations. Upon completion of the compounds treatment, AGS, HCT116, SW626, DU145, NCI-H23, Hep3B, ACHN, BT-549, LNCaP, HEL92.1.7, and U266 cells were cultured at 37° C. under 5% CO2 for from 72 to 96 hours, and MDA-MB-231 and MDA-MB-468 cells were cultured at 37° C. in air for from 72 to 96 hours. Subsequently, the cells were observed under microscope and drug precipitation and particular findings were investigated and recorded. And then, the 96-well plate was placed at room temperature for 30 minutes, added with 20 μL/well of CellTiter-Glo solution (Cat No. G7573, Promega) and shaken for 10 minutes, followed by being subjected to the measurement using PHERAstar™ microplate reader (BMG LABTECH) according to the supplier's general luminometer protocol. Wells where only culture liquid added without cell plating were used as a negative control, whereas wells where culture liquid containing 0.1% DMSO instead of the compounds listed in Examples were used as a positive control.
# STAT3 = molecular target: T1, STAT3 (Homo sapiens, UniProt P40763); assay: STAT3 reporter gene assay (luciferase), LNCaP stable cell line (pSTAT3-TA-luc), IL-6 stimulation
# T1 construct: plasmid pSTAT3-TA-luc), which contains a stably operating STAT3 promoter; endogenous in cells
# Description: 1-1) Experiment on the Inhibition of STAT3 Activity
# A human prostate cancer cell line (LNCaP stable cell line; plasmid pSTAT3-TA-luc), which contains a stably operating STAT3 promoter, was cultured in RPMI1640 medium (Cat No. 11875, Life Technologies) containing 10% fetal bovine serum (FBS) (Cat No. SH30396, Thermo Scientific) and 150 μg/mL G-418 solution (Cat No. 04 727 894 001, Roche). The reporter gene assay using LNCaP stable cell line was performed in RPMI1640 medium containing 3% DCC-FBS without G-418 solution. LNCaP stable cells were plated in two (2) white 96-well plates with 30,000 cells/50 μL in each well. The cells were cultured at 37° C., under 5% CO2 for 24 hours, and then treated with the compounds listed in Examples which were diluted in various concentrations. Subsequently, IL-6 was added to each well with a final concentration of 10 ng/mL. Upon completion of the treatment with the compounds and IL-6, the cells were cultured at 37° C., under 5% CO2 for from 24 to 48 hours. The plates were observed under microscope and drug precipitation and particular findings were investigated and recorded.
# The luciferase assay and the cell viability assay were performed respectively with one of the two plates. For the luciferase assay, the liquid media in the 96-well plate was removed, and then, 20 μL of passive cell lysis buffer was added to each well. After shaking the plate for 30 minutes, luciferase activities of each well were measured in a PHERAstar™ microplate reader (BMG LABTECH) using a luciferase assay system (Cat No. E1501, Promega). For the cell viability assay, the 96-well plate was placed at room temperature for 30 minutes, added with 20 μL/well of CellTiter-Glo solution (Cat No. G7573, Promega), and shaken for 10 minutes in order to measure cytotoxicity caused by the compounds listed in Examples with a PHERAstar™ microplate reader (BMG LABTECH). Wells without 0.1% DMSO and stimulation were used as a negative control and wells with 0.1% DMSO and stimulation were used as a positive control.
# LNCaP = assay: Cell growth inhibition assay, prostate cancer cell line LNCaP (medium with 10 ng/mL IL-6); conditions: Homo sapiens, medium supplemented with 10 ng/mL of IL-6, 10,000 cells/well
# Description: as §1
# T1 sequence (P40763 whole entry): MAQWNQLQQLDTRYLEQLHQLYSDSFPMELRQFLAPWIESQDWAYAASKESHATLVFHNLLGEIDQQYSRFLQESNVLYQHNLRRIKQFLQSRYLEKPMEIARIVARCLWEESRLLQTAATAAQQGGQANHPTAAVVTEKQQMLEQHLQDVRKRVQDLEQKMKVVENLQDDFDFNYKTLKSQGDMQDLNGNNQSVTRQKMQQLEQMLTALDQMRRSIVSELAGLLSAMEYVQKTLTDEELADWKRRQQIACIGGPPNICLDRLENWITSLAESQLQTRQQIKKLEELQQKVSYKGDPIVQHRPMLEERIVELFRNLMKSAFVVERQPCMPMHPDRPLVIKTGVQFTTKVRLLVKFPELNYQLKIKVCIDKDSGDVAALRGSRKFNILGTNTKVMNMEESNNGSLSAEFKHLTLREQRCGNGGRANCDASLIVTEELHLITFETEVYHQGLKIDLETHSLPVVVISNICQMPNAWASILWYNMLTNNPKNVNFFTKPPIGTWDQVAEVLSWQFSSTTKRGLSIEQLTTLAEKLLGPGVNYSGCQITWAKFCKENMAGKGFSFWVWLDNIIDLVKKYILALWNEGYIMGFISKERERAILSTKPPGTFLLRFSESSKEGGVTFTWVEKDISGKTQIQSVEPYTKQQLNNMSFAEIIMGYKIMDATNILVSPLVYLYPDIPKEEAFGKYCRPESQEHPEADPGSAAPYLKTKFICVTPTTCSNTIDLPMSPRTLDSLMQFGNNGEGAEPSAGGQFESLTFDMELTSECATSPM
SMILES,IC50 (DU-145) [µM],IC50 (STAT3) [µM],IC50 (LNCaP) [µM]
"CS(=O)(=O)Nc1ccc2sc(C(=O)Nc3cc(Cl)cc(Oc4ccc(C#N)cc4)c3)cc2c1 [Example 451, N-(3-chloro-5-(4-cyanophenoxy)phenyl)-5-(methylsulfonamido)benzo[b]thiophene-2-carboxamide]",0.19,0.14,0.51
"CN(c1ccc2sc(C(=O)Nc3cc(Cl)cc(Oc4ccc(Cl)cc4)c3)cc2c1)S(C)(=O)=O [Example 220, N-(3-chloro-5-(4-chlorophenoxy)phenyl)-5-(N-methylmethylsulfonamido)benzo[b]thiophene-2-carboxamide]",0.007,0.012,0.013
"CC(C)(c1ccc(F)cc1)c1cc(Cl)cc(NC(=O)c2cc3cc(NS(C)(=O)=O)c(Cl)cc3s2)c1 [Example 182, 6-chloro-N-(3-chloro-5-(2-(4-fluorophenyl)propan-2-yl)phenyl)-5-(methylsulfonamido)benzo[b]thiophene-2-carboxamide]",0.005,0.012,0.018
"CS(=O)(=O)Nc1cc2sc(C(=O)Nc3cc(Cl)cc(Oc4ccc(Cl)cc4)c3)cc2cc1Cl [Example 485, 5-chloro-N-(3-chloro-5-(4-chlorophenoxy)phenyl)-6-(methylsulfonamido)benzo[b]thiophene-2-carboxamide]",0.38,0.129,> 1.1
"CS(=O)(=O)Nc1ccc2sc(C(=O)Nc3cc(Cl)cc(Oc4cccc(C(F)(F)F)c4)c3)cc2c1 [Example 455, N-(3-chloro-5-(3-(trifluoromethyl)phenoxy)phenyl)-5-(methylsulfonamido)benzo[b]thiophene-2-carboxamide]",0.19,0.19,0.22
"CS(=O)(=O)Nc1cc2cc(C(=O)Nc3cc(Cl)nc(Oc4ccc(C(F)(F)F)cc4)c3)sc2cc1Cl [Example 496, 6-chloro-N-(2-chloro-6-(4-(trifluoromethyl)phenoxy)pyridin-4-yl)-5-(methylsulfonamido)benzo[b]thiophene-2-carboxamide]",–,0.009,–
CS(=O)(=O)Nc1cc2cc(C(=O)Nc3cc(Cl)nc(Oc4ccc(Cl)nc4)c3)sc2cc1Cl [Example 492],–,0.008,–
"CS(=O)(=O)Nc1cc2cc(C(=O)Nc3cc(Cl)cc(Oc4ccc(Cl)s4)c3)sc2cc1Cl [Example 473, 6-chloro-N-(3-chloro-5-((5-chlorothiophen-2-yl)oxy)phenyl)-5-(methylsulfonamido)benzo[b]thiophene-2-carboxamide]",0.015,0.1,0.015
"CS(=O)(=O)Nc1ccc2sc(C(=O)Nc3cc(Cl)cc(Oc4ccc(OC(F)(F)F)cc4)c3)cc2c1 [Example 454, N-(3-chloro-5-(4-(trifluoromethoxy)phenoxy)phenyl)-5-(methylsulfonamido)benzo[b]thiophene-2-carboxamide]",0.059,0.12,0.83
"CC(C)(c1cccc(F)c1)c1cc(Cl)cc(NC(=O)c2cc3cc(NS(C)(=O)=O)ccc3s2)c1 [Example 65, N-(3-chloro-5-(2-(3-fluorophenyl)propan-2-yl)phenyl)-5-(methylsulfonamido)benzo[b]thiophene-2-carboxamide]",0.005,0.064,–
"CC(C)Oc1cc(OC(F)(F)F)cc(C(C)(C)c2cc(Cl)cc(NC(=O)c3cc4c(s3)CCN(S(C)(=O)=O)C4)c2)c1 [Example 97, N-(3-chloro-5-(2-(3-isopropoxy-5-(trifluoromethoxy)phenyl)propan-2-yl)phenyl)-5-(methylsulfonyl)-4,5,6,7-tetrahydrothieno[3,2-c]pyridine-2-carboxamide]",0.17,2.1,–
"COc1cc2sc(C(=O)Nc3cc(Cl)cc(Oc4ccc(Cl)cc4)c3)cc2cc1NS(C)(=O)=O [Example 498, N-(3-chloro-5-(4-chlorophenoxy)phenyl)-6-methoxy-5-(methylsulfonamido)benzo[b]thiophene-2-carboxamide]",–,0.06,–
"CC(C)Oc1cc(OC(F)(F)F)cc(C(C)(C)c2cc(Cl)cc(NC(=O)c3cc(NS(C)(=O)=O)cs3)c2)c1 [Example 102, N-(3-chloro-5-(2-(3-isopropoxy-5-(trifluoromethoxy)phenyl)propan-2-yl)phenyl)-4-(methylsulfonamido)thiophene-2-carboxamide]",> 1.1,4.6,–
"CS(=O)(=O)Nc1ccc2[nH]c(C(=O)Nc3cccc(-c4ccccc4C(F)(F)F)c3)cc2c1 [Example 259, 5-(methylsulfonamido)-N-(2′-(trifluoromethyl)-[1,1′-biphenyl]-3-yl)-1H-indole-2-carboxamide]",–,1.1,2
"CS(=O)(=O)Nc1ccc2sc(C(=O)Nc3cc(Cl)nc(Oc4ccc(Cl)nc4)c3)cc2c1 [Example 491, N-(2-chloro-6-((6-chloropyridin-3-yl)oxy)pyridin-4-yl)-5-(methylsulfonamido)benzo[b]thiophene-2-carboxamide]",–,0.13,–
"CC(C)Oc1cc(OC(F)(F)F)cc(C(C)(C)c2cc(Br)cc(NC(=O)c3cc4cc(OP(=O)(O)O)ccc4s3)c2)c1 [Example 192, 2-((3-bromo-5-(2-(3-isopropoxy-5-(trifluoromethoxy)phenyl)propan-2-yl)phenyl)carbamoyl)benzo[b]thiophen-5-yl dihydrogen phosphate]",–,0.75,–
"CS(=O)(=O)Nc1cc2cc(C(=O)Nc3cc(Cl)nc(Oc4ccc(C(F)(F)F)nc4)c3)sc2cc1Cl [Example 494, 6-chloro-N-(2-chloro-6-((6-(trifluoromethyl)pyridin-3-yl)oxy)pyridin-4-yl)-5-(methylsulfonamido)benzo[b]thiophene-2-carboxamide]",–,0.018,–
"CS(=O)(=O)Nc1ccc2sc(C(=O)Nc3cc(Cl)nc(Oc4ccc(C(F)(F)F)cc4)c3)cc2c1 [Example 495, N-(2-chloro-6-(4-(trifluoromethyl)phenoxy)pyridin-4-yl)-5-(methylsulfonamido)benzo[b]thiophene-2-carboxamide]",–,0.08,–
"CS(=O)(=O)Nc1cc2cc(C(=O)Nc3cc(Cl)nc(Oc4ccc(Cl)cc4)c3)sc2cc1Cl [Example 490, 6-chloro-N-(2-chloro-6-(4-chlorophenoxy)pyridin-4-yl)-5-(methylsulfonamido)benzo[b]thiophene-2-carboxamide]",–,0.016,–
"COc1cc2sc(C(=O)Nc3cc(Cl)cc(C(C)(C)c4ccc(Cl)cc4)c3)cc2cc1NS(C)(=O)=O [Example 497, N-(3-chloro-5-(2-(4-chlorophenyl)propan-2-yl)phenyl)-6-methoxy-5-(methylsulfonamido)benzo[b]thiophene-2-carboxamide]",–,0.005,–
"CS(=O)(=O)Nc1ccc2sc(C(=O)Nc3cc(Cl)nc(Oc4ccc(C(F)(F)F)nc4)c3)cc2c1 [Example 493, N-(2-chloro-6-((6-(trifluoromethyl)pyridin-3-yl)oxy)pyridin-4-yl)-5-(methylsulfonamido)benzo[b]thiophene-2-carboxamide]",–,0.14,–
